Consider 21 compounds from patent publication US20240083861A1, “HSD17B13 INHIBITORS AND USES THEREOF” (FL2022-001, Inc., priority 2020, published 2024).

The test has as its target T1, Recombinant human HSD17B13 enzyme (Homo sapiens, UniProt Q7Z5P4).
T1 sequence (Q7Z5P4 20-300): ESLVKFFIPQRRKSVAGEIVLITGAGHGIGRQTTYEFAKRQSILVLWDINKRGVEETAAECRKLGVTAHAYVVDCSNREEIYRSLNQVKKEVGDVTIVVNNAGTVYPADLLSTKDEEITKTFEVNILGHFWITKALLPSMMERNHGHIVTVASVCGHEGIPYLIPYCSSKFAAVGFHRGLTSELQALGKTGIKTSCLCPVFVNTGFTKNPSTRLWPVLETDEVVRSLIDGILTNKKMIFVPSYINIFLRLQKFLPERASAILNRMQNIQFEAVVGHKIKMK
Description: HSD17b13 NAD(P)H-Glo biochemical assay. The note with it: 50 uM estradiol, 1 mM NAD+, NAD(P)H-Glo luminescence; read-out: HSD17β13 IC50. Summed up: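 Recombinant human HSD17B13 in 20 mM Tris pH7.4 with 0.002% Tween-20 and 0.02% BSA was preincubated with inhibitor for 20 minutes at RT. The reaction ran 3 hours at 37° C with 50 uM estradiol and 1 mM NAD+ (final). NADH formed was detected by NAD(P)H-Glo luminescence after 1 hour at RT.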
As for `Cn1nc(-c2cc(C(F)(F)F)c(F)c(O)c2F)c2cnc(N3CCO[C@@H](c4ccccc4)C3)nc21` [Compound 18.86, (S)-2,6-Difluoro-3-(1-methyl-6-(2-phenylmorpholino)-1H-pyrazolo[3,4-d]pyrimidin-3-y1)-5-(trifluoromethyl)phenol], the IC50 is under 100 nM.
As to `Cn1nc(-c2cc(C(F)(F)F)c(F)c(O)c2F)c2cnc(N3CCO[C@H](c4ccccc4)C3)nc21` [Compound 18.87, (R)-2,6-Difluoro-3-(1-methyl-6-(2-phenylmorpholino)-1H-pyrazolo[3,4-d]pyrimidin-3-y1)-5-(trifluoromethyl)phenol], the IC50 was under 100 nM.
On to `Cn1nc(-c2cc(C(F)(F)F)c(F)c(O)c2F)c2cnc(N3CCC(O)(c4cccnc4)CC3)nc21` [Compound 18.88, 1-(3-(2,4-Difluoro-3-hydroxy-5-(trifluoromethyl)phenyl)-1-methyl-1H-pyrazolo[3,4-d]pyrimidin-6-yl)-4-(pyridin-3-yl)piperidin-4-ol], for which the IC50 is under 100 nM.
Regarding `CN1CC2(CCN(c3ncc4c(-c5cc(C(F)(F)F)c(F)c(O)c5F)nn(C)c4n3)CC2)OC1=O` [Compound 18.89, 8-(3-(2,4-Difluoro-3-hydroxy-5-(trifluoromethyl)phenyl)-1-methyl-1H-pyrazolo[3,4-d]pyrimidin-6-yl)-3-methyl-1-oxa-3,8-diazaspiro[4.5]decan-2-one], the IC50 is under 100 nM.
With `Cn1nc(-c2cc(C(F)(F)F)c(F)c(O)c2F)c2cnc(N3CCCC(c4cncnc4)C3)nc21` (stereo not drawn) [Compound 18.90, 2,6-Difluoro-3-(1-methyl-6-(3-(pyrimidin-5-y1)piperidin-1-yl)-1H-pyrazolo[3,4-d]pyrimidin-3-y1)-5-(trifluoromethyl)phenol], the IC50 was under 100 nM.
Regarding `Cn1nc(-c2cc(C(F)(F)F)c(F)c(O)c2F)c2cnc(N3CCC(O)(CO)CC3)nc21` [Compound 18.91, 1-(3-(2,4-Difluoro-3-hydroxy-5-(trifluoromethyl)phenyl)-1-methyl-1H-pyrazolo[3,4-d]pyrimidin-6-yl)-4-(hydroxymethyl)piperidin-4-ol], the IC50 was under 100 nM.
Turning to `Cn1nc(-c2cc(C(F)(F)F)c(F)c(O)c2F)c2cnc(N3CCC4(CCO4)CC3)nc21` [Compound 18.92, 2,6-Difluoro-3-(1-methyl-6-(1-oxa-7-azaspiro[3.5]nonan-7-y1)-1H-pyrazolo[3,4-d]pyrimidin-3-y1)-5-(trifluoromethyl)phenol], the IC50 is under 100 nM.
For `Cn1nc(-c2cc(C(F)(F)F)c(F)c(O)c2F)c2cnc(N3CCC(O)(C4CC4)CC3)nc21` [Compound 18.93, 4-Cyclopropyl-1-(3-(2,4-difluoro-3-hydroxy-5-(trifluoromethyl)phenyl)-1-methyl-1H-pyrazolo[3,4-d]pyrimidin-6-y1)piperidin-4-ol], the IC50 was under 100 nM.
Regarding `CN1CCN(c2ncc3c(-c4cc(C(F)(F)F)c(F)c(O)c4F)nn(C)c3n2)CC1c1ccccc1` (stereo not drawn) [Compound 18.94, 2,6-Difluoro-3-(1-methyl-6-(4-methyl-3-phenylpiperazin-1-y1)-1H-pyrazolo[3,4-d]pyrimidin-3-yl)-5-(trifluoromethyl)phenol], the IC50 was under 100 nM.
Consider `Cn1nc(-c2cc(C(F)(F)F)c(F)c(O)c2F)c2cnc(N3CCOC4(CCOCC4)C3)nc21` [Compound 18.95, 2,6-Difluoro-3-(1-methyl-6-(1,9-dioxa-4-azaspiro[5.5]undecan-4-y1)-1H-pyrazolo[3,4-d]pyrimidin-3-y1)-5-(trifluoromethyl)phenol], for which the concentration for half-maximal inhibition (IC50) was under 100 nM.
Then `Cn1nc(-c2cc(C(F)(F)F)c(F)c(O)c2F)c2cnc(N3CCC(O)(c4ccccn4)CC3)nc21` [Compound 18.96, 1-(3-(2,4-Difluoro-3-hydroxy-5-(trifluoromethyl)phenyl)-1-methyl-1H-pyrazolo[3,4-d]pyrimidin-6-yl)-4-(pyridin-2-y1)piperidin-4-ol], with under 100 nM; and `Cn1nc(-c2cc(C(F)(F)F)c(F)c(O)c2F)c2cnc(N3CCC(O)(c4ccncc4)CC3)nc21` [Compound 18.97, 1-(3-(2,4-Difluoro-3-hydroxy-5-(trifluoromethyl)phenyl)-1-methyl-1H-pyrazolo[3,4-d]pyrimidin-6-yl)-4-(pyridin-4-yl)piperidin-4-ol], with under 100 nM; and `Cn1nc(-c2cc(C(F)(F)F)c(F)c(O)c2F)c2cnc(N3CCCCC3COc3ccccc3)nc21` (stereo not drawn) [Compound 18.98, 2,6-Difluoro-3-(1-methyl-6-(2-(phenoxymethyl)piperidin-1-yl)-1H-pyrazolo[3,4-d]pyrimidin-3-yl)-5-(trifluoromethyl)phenol], with under 100 nM.
Take `Cn1nc(-c2cc(C(F)(F)F)c(F)c(O)c2F)c2cnc(N3CCC4(CCCO4)CC3)nc21` [Compound 18.99, 2,6-Difluoro-3-(1-methyl-6-(1-oxa-8-azaspiro[4.5]decan-8-yl)-1H-pyrazolo[3,4-d]pyrimidin-3-y1)-5-(trifluoromethyl)phenol]: the IC50 is under 100 nM.
In the case of `COC1(CO)CCN(c2ncc3c(-c4cc(C(F)(F)F)c(F)c(O)c4F)nn(C)c3n2)CC1` [Compound 18.100, 2,6-Difluoro-3-(6-(4-(hydroxymethyl)-4-methoxypiperidin-1-y1)-1-methyl-1H-pyrazolo[3,4-d]pyrimidin-3-yl)-5-(trifluoromethyl)phenol], the IC50 was under 100 nM.
The value for `CN1CCN(c2ncc3c(-c4cc(C(F)(F)F)c(F)c(O)c4F)nn(C)c3n2)CC1c1ncc[nH]1` (stereo not drawn) [Compound 18.101, 3-(6-(3-(1H-Imidazol-2-yl)-4-methylpiperazin-1-y1)-1-methyl-1H-pyrazolo[3,4-d]pyrimidin-3-yl)-2,6-difluoro-5-(trifluoromethyl)phenol] was 100 to 1000 nM.
Turning to `Cn1nc(-c2cc(C(F)(F)F)c(F)c(O)c2F)c2cnc(N3CCOCC3(C)C)nc21` [Compound 18.102, 3-(6-(3,3-Dimethylmorpholino)-1-methyl-1H-pyrazolo[3,4-d]pyrimidin-3-y1)-2,6-difluoro-5-(trifluoromethyl)phenol], the IC50 is under 100 nM.
The value for `Cn1nc(-c2cc(C(F)(F)F)c(F)c(O)c2F)c2cnc(N3CCOC(C)(C)C3)nc21` [Compound 18.103, 3-(6-(2,2-Dimethylmorpholino)-1-methyl-1H-pyrazolo[3,4-d]pyrimidin-3-y1)-2,6-difluoro-5-(trifluoromethyl)phenol] was under 100 nM.
In the case of `Cn1nc(-c2cc(C(F)(F)F)c(F)c(O)c2F)c2cnc(N3CCOCC3C3CCC3)nc21` (stereo not drawn) [Compound 18.104, 3-(6-(3-Cyclobutylmorpholino)-1-methyl-1H-pyrazolo[3,4-d]pyrimidin-3-y1)-2,6-difluoro-5-(trifluoromethyl)phenol], the IC50 was under 100 nM.
In the case of `Cn1nc(-c2cc(C(F)(F)F)c(F)c(O)c2F)c2cnc(N3CCOC4(CC4)C3)nc21` [Compound 18.105, 2,6-Difluoro-3-(1-methyl-6-(4-oxa-7-azaspiro[2.5]octan-7-y1)-1H-pyrazolo[3,4-d]pyrimidin-3-y1)-5-(trifluoromethyl)phenol], the IC50 is under 100 nM.
As for `Cn1nc(-c2cc(C(F)(F)F)c(F)c(O)c2F)c2cnc(N3CCOC4(CCCC4)C3)nc21` [Compound 18.106, 2,6-Difluoro-3-(1-methyl-6-(6-oxa-9-azaspiro[4.5]decan-9-yl)-1H-pyrazolo[3,4-d]pyrimidin-3-y1)-5-(trifluoromethyl)phenol], the IC50 is under 100 nM.
